What was measured:
[1] = test system: AhR; experiment: Receptor capture assay, real-time PCR, rodent cytosol as source of AhR; format: biochemical
Procedure: (§1) A set of calibrators consisting of 5000, 2500, 1250, […], 313, 156, and 78 parts per trillion (ppt or pg/ml) 2,3,7,8-tetrachlorodibenzo-p-dioxin (TCDD) was prepared in methanol. In addition to TCDD a set of calibrators for AhR agonist, beta-naphthoflavone (BNF) was prepared and analyzed in the assay. Separately, 25 ul of 1:50,000 dilution of 10 uM stock nucleic acid-tracer was added per 1 ml of rodent cytosol, which was the source of AhR, and was aliquoted into glass tubes. The standards were diluted 1:20 into 50-100 ul of rodent cytosol, and incubated for 1-2 hr at room temperature to 37° C. Following incubation, 40 to 100 ul of the reaction was transferred to each well of the antibody-coated Capture Strip and incubated on a shaking platform for 30 min to 1 hr at room temperature. The Capture Strips were washed 5 times with Wash Buffer B, and aspirated; optionally soaking wells for 30 sec-5 min with wash buffer during each cycle. Taqman® Universal PCR Master Mix, primers, and Taqman® probe (Applied Biosystems, Calif.) were added, and adhesive cover applied. PCR was performed and analyzed using an ABI PRISM® 7700, using default settings: 50° C., 2 min, 95° C. 10 min, and 40 cycles of [95° C., 15 sec, 60° C., 60 sec]. A threshold cycle (Ct) was determined for each reaction The Ct represents the PCR cycle at which an increase in reporter fluorescence above baseline signal can first be detected.

[2] = biological target: T1, AhR (Cavia porcellus, UniProt Q6J287); experiment: Receptor capture assay, real-time PCR, AhR derived from guinea pig; format: biochemical; design: The cytosol containing AhR heteromers was stored at; from tissue; host or cells: liver cytosol of Hartley guinea pigs
T1 sequence (Q6J287 1-846): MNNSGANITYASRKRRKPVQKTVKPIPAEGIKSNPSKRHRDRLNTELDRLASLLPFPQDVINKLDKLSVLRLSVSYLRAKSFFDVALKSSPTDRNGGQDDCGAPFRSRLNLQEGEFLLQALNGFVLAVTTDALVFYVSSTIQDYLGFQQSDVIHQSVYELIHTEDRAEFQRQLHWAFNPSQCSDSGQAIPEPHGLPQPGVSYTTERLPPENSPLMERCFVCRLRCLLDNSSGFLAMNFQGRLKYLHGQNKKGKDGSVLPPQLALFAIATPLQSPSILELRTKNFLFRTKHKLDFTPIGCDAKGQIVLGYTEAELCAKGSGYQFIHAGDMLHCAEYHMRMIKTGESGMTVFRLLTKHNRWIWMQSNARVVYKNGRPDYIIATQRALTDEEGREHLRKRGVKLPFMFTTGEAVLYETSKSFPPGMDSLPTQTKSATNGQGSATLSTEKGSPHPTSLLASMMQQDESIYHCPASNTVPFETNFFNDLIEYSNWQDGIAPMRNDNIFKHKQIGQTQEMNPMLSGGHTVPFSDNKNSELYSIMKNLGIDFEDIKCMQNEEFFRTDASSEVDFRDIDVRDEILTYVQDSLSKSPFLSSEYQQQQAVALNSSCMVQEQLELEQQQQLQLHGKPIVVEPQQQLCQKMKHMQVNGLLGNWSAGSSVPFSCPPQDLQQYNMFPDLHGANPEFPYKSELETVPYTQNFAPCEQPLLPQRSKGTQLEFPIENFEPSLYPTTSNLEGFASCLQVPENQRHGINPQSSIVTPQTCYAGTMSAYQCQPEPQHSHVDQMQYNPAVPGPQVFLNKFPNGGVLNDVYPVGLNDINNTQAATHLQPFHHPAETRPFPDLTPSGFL
Procedure: as §1, with “10 min, and 40 cycles of [95° C., 15 sec, 60° C., 60 sec].” left out

SMILES: Clc1cc2c(cc1Cl)Oc1cc(Cl)c(Cl)cc1O2 [TCDD, 2,3,7,8-tetrachlorodibenzo-p-dioxin]
- Ct Values ([1]; TCDD 78 ppt): 24.52
- Ct Values ([1]; TCDD 156 ppt): 23.81
- Ct Values ([1]; TCDD 313 ppt): 23.16
- Ct Values ([1]; TCDD 1250 ppt): 21.3
- Ct Values ([1]; TCDD 2500 ppt): 20.5
- Ct Values ([1]; TCDD 5000 ppt): 20.28
- slope of dose-response curve [2]: −1.042
- EC50 of dose-response curve ([2]; pg of TCDD in the assay): 2.6 pg

Reference: patent US20040259096A1, “Receptor capture assay” (priority 2001, published 2004)
